From the supplement of paper PMC10307832

Tests used:
Test in all cases: relative viability (nuclei count vs DMSO), 5 days (fraction); higher = more cells survive
[1] = compound: COc1cc2ncn(-c3cc(OCc4ccccc4C(F)(F)F)c(C(N)=O)s3)c2cc1OC + COc1cccc2cc(-c3nc([C@H]4CC[C@H](C(=O)O)CC4)n4ncnc(N)c34)[nH]c12 [OSI-027] (partner 0.5 µM)
How it was run: (§1)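 Lung cancer cell lines were pin-tool dosed in 1536-well plates on the day after seeding, with either a lone drug or a fixed anchor-drug dose plus five library-drug doses (not always all listed) in √10 steps. Nuclei were counted on 4× images after 5 days. Relative viability is the ratio of treated-well to vehicle-well nuclei counts, with each value a median of duplicate plates.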

[2] = compound: COc1cc2ncn(-c3cc(OCc4ccccc4C(F)(F)F)c(C(N)=O)s3)c2cc1OC + CS(=O)(=O)CCNCc1ccc(-c2ccc3ncnc(Nc4ccc(OCc5cccc(F)c5)c(Cl)c4)c3c2)o1 [Lapatinib] (partner 2 µM)
How it was run: as §1

[3] = compound: COc1cc2ncn(-c3cc(OCc4ccccc4C(F)(F)F)c(C(N)=O)s3)c2cc1OC + C[C@]1(O)C[C@@H](c2nc(-c3ccc4ccc(-c5ccccc5)nc4c3)c3c(N)nccn32)C1 [Linsitinib] (partner 1 µM)
How it was run: as §1

[4] = compound: COc1cc2ncn(-c3cc(OCc4ccccc4C(F)(F)F)c(C(N)=O)s3)c2cc1OC + Cc1nc(NC(=O)N2CCC[C@H]2C(N)=O)sc1-c1ccnc(C(C)(C)C(F)(F)F)c1 [Alpelisib] (partner 2 µM)
How it was run: as §1

| Cell Line | relative viability ([1]; first compound 0.05 µM) | relative viability ([1]; first compound 0.1581 µM) | relative viability ([1]; first compound 0.5 µM) | relative viability ([1]; first compound 5 µM) | relative viability ([2]; first compound 0.05 µM) | relative viability ([2]; first compound 0.1581 µM) | relative viability ([2]; first compound 0.5 µM) | relative viability ([2]; first compound 1.581 µM) | relative viability ([2]; first compound 5 µM) | relative viability ([3]; first compound 0.05 µM) | relative viability ([3]; first compound 0.1581 µM) | relative viability ([3]; first compound 0.5 µM) | relative viability ([3]; first compound 1.581 µM) | relative viability ([3]; first compound 5 µM) | relative viability ([4]; first compound 0.05 µM) | relative viability ([4]; first compound 0.1581 µM) | relative viability ([4]; first compound 0.5 µM) | relative viability ([4]; first compound 1.581 µM) | relative viability ([4]; first compound 5 µM) | relative viability ([1]; first compound 1.581 µM) |
| --- | --- | --- | --- | --- | --- | --- | --- | --- | --- | --- | --- | --- | --- | --- | --- | --- | --- | --- | --- | --- |
| 201T | 0.755 | 0.699 | 0.672 | 0.369 | 1.04 | 1.03 | 1.01 | 0.708 | 0.299 | 1.05 | 0.983 | 0.971 | 0.46 | 0.262 | 1 | 1.08 | 0.984 | 0.475 | 0.297 |  |
| A549 |  |  |  |  | 0.984 | 0.862 | 0.0918 | 0.0675 | 0.065 | 0.63 | 0.714 | 0.386 | 0.0698 | 0.29 | 0.802 | 0.753 | 0.186 | 0.0572 | 0.0466 |  |
| A-427 | 0.54 | 0.339 | 0.432 | 0.114 | 1.02 | 1.12 | 1 | 0.418 | 0.116 | 1.14 | 1.15 | 1.03 | 0.566 | 0.179 | 1.01 | 1.13 | 1 | 0.486 | 0.161 | 0.158 |
| ABC-1 | 0.629 | 0.437 | 0.248 | 0.191 | 1.18 | 0.723 | 1.11 | 1.14 | 1.2 | 0.862 | 0.874 | 0.582 | 0.302 | 0.218 | 1.25 | 1.02 | 0.786 | 0.316 | 0.319 | 0.207 |
| BEN | 0.272 | 0.307 | 0.278 | 0.233 | 0.696 | 0.526 | 0.56 | 0.256 | 0.212 | 0.931 | 0.875 | 0.648 | 0.235 | 0.297 | 1.18 | 1 | 0.81 | 0.262 | 0.391 | 0.205 |
| CAL-12T | 0.535 | 0.411 | 0.149 | 0.141 | 0.647 | 0.708 | 0.379 | 0.228 | 0.156 | 0.775 | 0.746 | 0.423 | 0.246 | 0.228 | 1.03 | 0.973 | 0.513 | 0.188 | 0.196 | 0.129 |
| COR-L23 | 0.697 | 0.644 | 0.679 | 0.0946 | 0.891 | 1.01 | 0.798 | 0.143 | 0.107 | 0.887 | 0.761 | 0.332 | 0.0808 | 0.1 | 0.85 | 0.746 | 0.334 | 0.0804 | 0.0944 | 0.117 |
| COR-L 105 | 0.591 | 0.823 | 0.526 | 0.211 | 0.373 | 0.365 | 0.277 | 0.255 | 0.292 | 1.13 | 0.935 | 0.713 | 0.42 | 0.306 | 1.13 | 0.913 | 0.857 | 0.34 | 0.258 | 0.298 |
| Calu-6 |  |  |  |  | 1.02 | 0.872 | 0.315 | 0.129 | 0.128 | 0.976 | 0.843 | 0.257 | 0.0961 | 0.0852 | 0.92 | 0.67 | 0.23 | 0.128 | 0.112 |  |
| ChaGo-K-1 | 0.622 | 0.531 | 0.32 | 0.134 |  |  |  |  |  |  |  |  |  |  |  |  |  |  |  | 0.182 |
| EBC-1 |  |  |  |  | 0.195 | 0.216 | 0.199 | 0.172 | 0.176 | 0.798 | 0.889 | 0.446 | 0.169 | 0.134 | 0.82 | 0.682 | 0.235 | 0.207 | 0.194 |  |
| EKVX | 0.653 | 0.69 | 0.491 | 0.449 | 0.176 | 0.265 | 0.206 | 0.165 | 0.178 | 1.06 | 1.07 | 0.858 | 0.214 | 0.42 | 0.889 | 0.982 | 0.834 | 0.21 | 0.215 |  |
| EMC-BAC-2 | 0.37 | 0.429 | 0.29 | 0.172 | 0.998 | 0.944 | 0.786 | 0.228 | 0.216 | 0.906 | 0.843 | 0.696 | 0.509 | 0.164 | 0.804 | 0.799 | 0.639 | 0.403 | 0.149 | 0.194 |
| EPLC-272H |  | 0.277 | 0.225 | 0.136 | 0.976 | 0.867 | 0.527 | 0.111 | 0.0981 | 1.12 | 1.15 | 0.533 | 0.11 | 0.11 | 0.9 | 0.869 | 0.402 | 0.126 | 0.129 | 0.163 |
| H3255 | 0.599 | 0.536 | 0.485 | 0.34 | 0.24 | 0.261 | 0.206 | 0.17 | 0.149 | 0.858 | 0.962 | 0.533 | 0.248 | 0.228 | 0.626 | 0.796 | 0.444 | 0.335 | 0.233 |  |
| HARA | 0.445 | 0.504 | 0.244 | 0.0396 | 0.74 | 0.797 | 0.7 | 0.169 | 0.0753 | 0.958 | 0.842 | 0.834 | 0.208 | 0.0806 | 0.894 | 0.764 | 0.712 | 0.176 | 0.0641 | 0.0613 |
| HCC-15 | 0.713 | 0.635 | 0.269 | 0.104 | 0.861 | 0.731 | 0.602 | 0.135 | 0.114 | 0.865 | 0.828 | 0.557 | 0.14 | 0.13 | 0.93 | 0.749 | 0.283 | 0.142 | 0.1 | 0.127 |
| HCC-44 | 0.626 | 0.484 | 0.216 | 0.161 | 1.06 | 0.976 | 0.987 | 0.0934 | 0.171 | 0.773 | 0.621 | 0.55 | 0.141 | 0.109 | 0.908 | 0.76 | 0.503 | 0.13 | 0.0819 | 0.187 |
